Results published in PubChem BioAssay (NCI).
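Interpolation was linear, between the two tested concentrations surrounding the appropriate level; five concentrations were tested over 48 hours in 96-well plates. GI50 marks 50% less growth. TGI denotes the concentration required for complete inhibition of growth.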

Columns and labels:
Test in all cases: inhibition of tumour cell growth, NCI panel, 48 h
[1] = system: PC-3 prostate
[2] = system: NCI/ADR-RES ovarian
[3] = system: OVCAR-4 ovarian
[4] = system: HL-60(TB) leukemia
[5] = system: MDA-MB-231 breast
[6] = system: UACC-62 melanoma
[7] = system: MALME-3M melanoma
[8] = system: RXF 393 renal
[9] = system: KM12 colon
[10] = system: NCI-H23 lung
[11] = system: OVCAR-5 ovarian
[12] = system: DU-145 prostate
[13] = system: A498 renal
[14] = system: SNB-75 CNS
[15] = system: EKVX NSCLC
[16] = system: LOX IMVI melanoma
[17] = system: SF-539 CNS
[18] = system: HOP-92 NSCLC
[19] = system: SK-OV-3 ovarian
[20] = system: TK-10 renal
[21] = system: A549 NSCLC
[22] = system: CAKI-1 renal
[23] = system: SK-MEL-5 melanoma
[24] = system: UACC-257 melanoma
[25] = system: COLO 205 colon
[26] = system: BT-549 breast
[27] = system: UO-31 renal
[28] = system: IGROV1 ovarian
[29] = system: M14 melanoma
[30] = system: HCT-116 colon
[31] = system: OVCAR-3 ovarian
[32] = system: SF-268 CNS
[33] = system: SN12C renal
[34] = system: U251 CNS
[35] = system: SK-MEL-28 melanoma
[36] = system: NCI-H226 lung
[37] = system: SF-295 CNS
[38] = system: ACHN renal
[39] = system: NCI-H460 lung
[40] = system: NCI-H522 lung
[41] = system: OVCAR-8 ovarian
[42] = system: SK-MEL-2 melanoma
[43] = system: HS 578T breast
[44] = system: HOP-62 NSCLC
[45] = system: SR leukemia
[46] = system: SW-620 colon
[47] = system: MCF7 breast
[48] = system: MDA-MB-435
[49] = system: HCC-2998 colon
[50] = system: HT29 colon
[51] = system: RPMI-8226 leukemia
[52] = system: 786-0 renal
[53] = system: SNB-19 CNS
[54] = system: T-47D breast
[55] = system: K-562 leukemia
[56] = system: CCRF-CEM leukemia
[57] = system: MOLT-4 leukemia
[58] = system: HCT-15 colon

In the case of `O=c1ccc2nc(-c3ccccn3)nn(-c3ccccc3)c-2c1`, the GI50 [1] is reported as 1.93 µM, the TGI [1] is reported as 4.18 µM and the GI50 [2] is reported as 6.91 µM. It also gave a TGI [2] of 65.3 µM, a GI50 [3] of 1.56 µM and a TGI [3] of 3.04 µM. It also gave a GI50 [4] of 0.64 µM, a TGI [4] of 3.11 µM and a GI50 [5] of 1.92 µM. It also gave a TGI [5] of 3.68 µM, a GI50 [6] of 1.95 µM and a TGI [6] of 4.3 µM. It also gave a GI50 [7] of 1.77 µM, a TGI [7] of 3.37 µM and a GI50 [8] of 1.6 µM. For the same compound, the TGI [8] was 3.01 µM, the GI50 [9] was 14.5 µM and the TGI [9] was 28.9 µM. For the same compound, the GI50 [10] was 2.19 µM, the TGI [10] was 4.84 µM and the GI50 [11] was 4.99 µM. The TGI [11] was 18.1 µM, the GI50 [12] was 3.77 µM and the TGI [12] was 11.1 µM. For the same compound, the GI50 [13] was 14.1 µM, the TGI [13] was 27.2 µM and the GI50 [14] was 11.4 µM. For the same compound, the TGI [14] was 23.5 µM, the GI50 [15] was 6.25 µM and the TGI [15] was 20 µM. For the same compound, the GI50 [16] was 1.78 µM, the TGI [16] was 3.44 µM and the GI50 [17] was 6.93 µM. The TGI [17] was 19.8 µM, the GI50 [18] was 1.15 µM and the TGI [18] was 2.42 µM. For the same compound, the GI50 [19] was 11.1 µM, the TGI [19] was 24.1 µM and the GI50 [20] was 1.66 µM. The TGI [20] was 3.12 µM, the GI50 [21] was 18.4 µM and the TGI [21] was 42.3 µM. For the same compound, the GI50 [22] was 1.49 µM, the TGI [22] was 2.84 µM and the GI50 [23] was 2.3 µM. It also gave a TGI [23] of 5.53 µM, a GI50 [24] of 1.92 µM and a TGI [24] of 3.93 µM. The GI50 [25] was 2.2 µM, the TGI [25] was 5.12 µM and the GI50 [26] was 2.86 µM. For the same compound, the TGI [26] was 10.1 µM, the GI50 [27] was 1.46 µM and the TGI [27] was 2.82 µM. It also gave a GI50 [28] of 2.63 µM, a TGI [28] of 6.65 µM and a GI50 [29] of 3.39 µM. It also gave a TGI [29] of 13.6 µM, a GI50 [30] of 1.77 µM and a TGI [30] of 3.42 µM. It also gave a GI50 [31] of 1.77 µM, a TGI [31] of 3.17 µM and a GI50 [32] of 11.8 µM. The TGI [32] was 25.3 µM, the GI50 [33] was 2.24 µM and the TGI [33] was 5.33 µM. For the same compound, the GI50 [34] was 3.7 µM, the TGI [34] was 14.2 µM and the GI50 [35] was 1.69 µM. The TGI [35] was 3.24 µM, the GI50 [36] was 3.2 µM and the TGI [36] was 11.9 µM. It also gave a GI50 [37] of 13.9 µM, a TGI [37] of 27.4 µM and a GI50 [38] of 1.59 µM. The TGI [38] was 2.99 µM, the GI50 [39] was 15.5 µM and the TGI [39] was 32.8 µM. It also gave a GI50 [40] of 1.49 µM, a TGI [40] of 3.09 µM and a GI50 [41] of 3.1 µM. For the same compound, the TGI [41] was over 100 µM, the GI50 [42] was 2.96 µM and the TGI [42] was 8.68 µM. The GI50 [43] was 2.85 µM, the TGI [43] was 35.9 µM and the GI50 [44] was 3.76 µM. It also gave a TGI [44] of 44.3 µM, a GI50 [45] of 2.31 µM and a TGI [45] of over 100 µM. It also gave a GI50 [46] of 1.77 µM, a TGI [46] of 3.66 µM and a GI50 [47] of 0.783 µM. It also gave a TGI [47] of 4.71 µM, a GI50 [48] of 2.29 µM and a TGI [48] of 5.75 µM. For the same compound, the GI50 [49] was 4.18 µM, the TGI [49] was 14.6 µM and the GI50 [50] was 2.85 µM. It also gave a TGI [50] of 8.85 µM.
`CC(=O)c1nc2ccccc2n1CC(=O)c1cccc(Cl)c1` was tested, and the GI50 [1] was 1.12 µM, the TGI [1] was over 100 µM and the GI50 [51] was 0.255 µM. For the same compound, the TGI [51] was 14.3 µM, the GI50 [2] was 0.231 µM and the GI50 [3] was 0.752 µM. For the same compound, the TGI [3] was over 100 µM, the GI50 [4] was 0.144 µM and the TGI [4] was 0.61 µM. It also gave a GI50 [5] of 1.07 µM, a TGI [5] of over 100 µM and a GI50 [6] of 0.416 µM. It also gave a TGI [6] of 7.29 µM, a GI50 [7] of 0.517 µM and a TGI [7] of over 100 µM. It also gave a GI50 [8] of 0.264 µM, a TGI [8] of 0.88 µM and a GI50 [9] of 0.779 µM. It also gave a TGI [9] of over 43.4 µM, a GI50 [10] of 0.522 µM and a TGI [10] of over 47.5 µM. The GI50 [52] was 0.886 µM, the TGI [52] was over 41.4 µM and the GI50 [11] was 3.42 µM. For the same compound, the TGI [11] was over 71.4 µM, the GI50 [53] was 0.808 µM and the TGI [53] was over 100 µM. It also gave a GI50 [54] of 0.881 µM, a TGI [54] of over 100 µM and a GI50 [12] of 0.647 µM. The TGI [12] was over 31.8 µM, the GI50 [13] was 6.52 µM and the TGI [13] was 88.6 µM. The GI50 [14] was 0.313 µM, the TGI [14] was 59.8 µM and the GI50 [15] was 4.33 µM. It also gave a TGI [15] of over 100 µM, a GI50 [16] of 0.59 µM and a TGI [16] of over 100 µM. For the same compound, the GI50 [55] was 0.113 µM, the TGI [55] was over 44.1 µM and the GI50 [17] was 0.33 µM. For the same compound, the TGI [17] was 2.25 µM, the TGI [18] was over 86.2 µM and the GI50 [19] was 1.27 µM. For the same compound, the TGI [19] was over 100 µM, the GI50 [20] was 3.22 µM and the TGI [20] was 99.7 µM. For the same compound, the GI50 [21] was 2.67 µM, the TGI [21] was over 100 µM and the GI50 [22] was 2.78 µM. For the same compound, the TGI [22] was over 20.1 µM, the GI50 [23] was 0.175 µM and the TGI [23] was 13.6 µM. For the same compound, the GI50 [24] was 1.69 µM, the TGI [24] was over 100 µM and the GI50 [25] was 16.1 µM. The TGI [25] was over 79.1 µM, the GI50 [26] was 1.12 µM and the TGI [26] was over 100 µM. For the same compound, the GI50 [27] was 1.27 µM, the TGI [27] was over 100 µM and the GI50 [28] was 0.543 µM. It also gave a TGI [28] of over 100 µM, a GI50 [29] of 0.262 µM and a TGI [29] of over 100 µM. It also gave a GI50 [30] of 0.401 µM, a TGI [30] of over 100 µM and a GI50 [31] of 0.239 µM. The TGI [31] was over 100 µM, the GI50 [32] was 1.12 µM and the TGI [32] was over 71.7 µM. For the same compound, the GI50 [56] was 1.17 µM, the TGI [56] was over 26.2 µM and the GI50 [33] was 0.838 µM. For the same compound, the TGI [33] was over 100 µM, the GI50 [34] was 0.534 µM and the TGI [34] was over 100 µM. For the same compound, the GI50 [35] was 0.437 µM, the TGI [35] was over 54.3 µM and the GI50 [36] was 3.39 µM. For the same compound, the TGI [36] was over 44.2 µM, the GI50 [37] was 1.27 µM and the TGI [37] was over 23.2 µM. The GI50 [38] was 1.08 µM, the TGI [38] was over 100 µM and the GI50 [39] was 0.36 µM. For the same compound, the GI50 [40] was 0.0846 µM, the TGI [40] was 0.719 µM and the GI50 [57] was 0.897 µM. The TGI [57] was 26.7 µM, the GI50 [41] was 0.873 µM and the TGI [41] was over 100 µM. The GI50 [42] was 0.505 µM, the TGI [42] was 98 µM and the GI50 [58] was 0.246 µM. It also gave a TGI [58] of over 100 µM, a GI50 [44] of 1.69 µM and a TGI [44] of over 56.5 µM. The GI50 [45] was 0.121 µM, the TGI [45] was 1.48 µM and the GI50 [46] was 0.278 µM. It also gave a TGI [46] of over 100 µM, a GI50 [47] of 0.335 µM and a TGI [47] of over 100 µM. For the same compound, the GI50 [49] was 1.5 µM, the GI50 [50] was 11.6 µM and the TGI [50] was over 100 µM.
